Source: US20230047825A1, “ANTIMICROBIAL PEPTIDES” (priority 2019, published 2023)
≈ marks a conversion by molar mass, not a printed value. Like-named read-outs stand apart in the source and are kept apart here. Where a SMILES comes first, the peptide text is derived from it.

Columns and labels:
[1] = test system: Acinetobacter baumannii AYE; type: cell-based; conditions: for MIC on initial panels: medium and unit not given; for MIC on initial panels / MIC: in µg/mL; for MIC: untitled table, medium/unit not given, values match RPMI of Table 2
[2] = test system: Acinetobacter baumannii ATCC 17978; type: cell-based; conditions: in µg/mL; for MIC on initial panels / MIC: AB17978; for MIC on initial panels: medium and unit not given; for MIC: untitled table, medium/unit not given, values match RPMI of Table 2; for MIC, Stability in serum (MH): Ab17978
[3] = test system: VS Enterococcus faecalis NCTC 775; assay: Antibacterial activity assay (broth microdilution MIC); type: cell-based; conditions: for MIC, Peptide concentration: Mueller-Hinton broth; for MIC on initial panels: VSE775, medium and unit not given, in µg/mL
[4] = test system: HeLa; assay: Cytotoxicity assay (XTT); type: cell-based, human; parameters: Toxicity HeLa: unit not given beside the values; conditions: for Toxicity HeLa: unit not given; for Toxicity HeLa (EC50), Peptide concentration: value printed in parentheses
In short: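 Cells seeded 24 h in EMEM with 10% FBS and NEAA at 37 °C, 10% CO2, then medium replaced with peptide dilutions. After a further 24 h exposure, viability read by XTT tetrazolium staining.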

[5] = test system: EMR Staphylococcus aureus-16 (EMRSA-16); type: cell-based; conditions: EMRSA16; for MIC on initial panels: medium and unit not given, in µg/mL; for MIC: untitled table, medium/unit inferred, values match RPMI of Table 2
[6] = test system: human red blood cells; assay: Haemolysis assay; conditions: red cells of human, 1 h
In short: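 Peptide titrations in PBS incubated with fresh human red blood cells for 1 h at 37 C; supernatant OD550 read after removing intact cells. % haemolysis scaled between PBS-only (0%) and 0.1% Triton-X-100 (100%) controls; mean and SE of three biological replicates.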

[7] = Electrophysiology (Port-a-Patch patch-clamp) on model membranes
Description: The depth of insertion into each membrane is shown as the Z-position for each residue, averaged over all four peptides, relative to the phosphate group plane in the upper POPE/POPG (A/E/I) or POPG (C/G/K) bilayer leaflet in six MD simulations. Positive or negative values indicate the peptides are below or above the phosphate group. Representative current traces illustrating membrane activity when DPhPE/DPhPG (B/F/J) or DPhPG (D/H/L) model membranes are challenged with each peptide at the indicated concentration (lowest concentration that induced detectable activity). Data is for pleurocidin (A-D), pleurocidin-KR (E-H) and pleurocidin-VA (I-L). Membrane disordering by each peptide in mixed POPE/POPG bilayers is shown with data obtained from ^2H solid-state NMR (M/N) or from MD simulations where order parameters are calculated for all lipids within 4 Å of a peptide (O/P).
Molecular dynamics simulations. Simulations were carried out on either the ARCHER Cray XC30 supercomputer, or Dell Precision quad core T3400 or T3500 workstations equipped with a 1 kW Power supply (PSU) and two NVIDA PNY GeForce GTX570 or GTX580 graphics cards using Gromacs.^53 The CHARMM36 all-atom force field was used in all simulations^54-56. All simulations were run, as described previously^20 and for a total of 200 nanoseconds and repeated twice, with peptides inserted at different positions and orientations, giving a total of approximately 4.0 μs simulation. Liposome preparation and circular dichroism (CD) spectroscopy. Small unilamellar vesicles (SUV) were produced and far-UV spectra of the peptides obtained as described previously^20 using a Chirascan Plus spectrometer (Applied Photophysics, Leatherhead, UK) with samples maintained at 310 K. For liposome experiments the lipid concentration was 5 mM and a peptide to lipid molar ratio of 1:100 was maintained while the SDS micelles concentration was 20 mM with 200 μM peptide. Electrophysiology experiments (Patch-clamp). Patch clamp experiments were performed using the Port-a-Patch® (Nanion Technologies GmbH, Munich, Germany) with giant unilamellar vesicles (GUVs) composed of DPhPE/DPhPG (60:40, mol:mol) or DPhPG prepared by the electroformation method using the Nanion Vesicle Prep Pro setup (Nanion Technologies GmbH, Munich, Germany) as described previously.^20
Synergy experiments were performed following a checkerboard protocol.

[8] = test system: VRE12201; assay: Antibacterial activity assay (broth microdilution MIC); type: cell-based, Enterococcus faecalis; conditions: medium and unit inferred
Description: Antibacterial activity assay.
The bacterial strains used are as in the above examples. A table of strains is provided below to aid understanding.

[9] = test system: Klebsiella pneumoniae M6; type: cell-based; conditions: for MIC on initial panels: medium and unit not given, in µg/mL; for MIC: untitled table, medium/unit not given, values match RPMI of Table 2, in µg/mL
[10] = test system: Klebsiella pneumoniae NCTC 13368; type: cell-based; conditions: KP13368, in µg/mL; for MIC on initial panels: medium and unit not given; for MIC: untitled table, medium/unit not given, values match RPMI of Table 2
[11] = test system: Escherichia coli NCTC 12923; type: cell-based; conditions: for MIC, Stability in serum (MH) / MIC on initial panels / MIC: EC12923; for MIC on initial panels: medium and unit not given; for MIC on initial panels / MIC: in µg/mL; for MIC: untitled table, medium/unit not given, values match RPMI of Table 2; for MIC, Peptide concentration: NCTC 12923
[12] = AYE, Serum (10% fetal bovine serum)

Structure (SMILES) | MIC, Stability in serum (MH) ([1]; AYE, No serum) | MIC, Stability in serum (MH) [1, 12] | MIC on initial panels ([1]; AYE) | MIC ([1]; AYE) | MIC on initial panels [2] | MIC [2] | MIC, Stability in serum (MH) ([2]; No serum) | MIC, Stability in serum (MH) ([2]; Serum (10% fetal bovine serum)) | MIC, Peptide concentration [3] | MIC on initial panels [3] | Toxicity HeLa [4] | Toxicity HeLa (EC50), Peptide concentration [4] | MIC on initial panels [5] | MIC [5] | Toxicity HC50, Peptide concentration [6] | Peptide concentration necessary to start membrane activity ([7]; DPhPG) | MIC on initial panels [8] | MIC, Stability in serum (MH) ([9]; No serum) | MIC, Stability in serum (MH) ([9]; Serum (10% fetal bovine serum)) | MIC on initial panels [9] | further results
CC(C)C[C@H](NC(=O)[C@H](Cc1ccc(O)cc1)NC(=O)[C@H](Cc1c[nH]cn1)NC(=O)[C@@H](NC(=O)[C@H](CC(C)C)NC(=O)[C@H](C)NC(=O)[C@H](C)NC(=O)[C@H](CCCNC(=N)N)NC(=O)CNC(=O)[C@@H](NC(=O)[C@H](Cc1c[nH]cn1)NC(=O)[C@H](CCCNC(=N)N)NC(=O)CNC(=O)[C@@H](NC(=O)[C@H](Cc1c[nH]cn1)NC(=O)[C@H](C)NC(=O)[C@H](C)NC(=O)[C@H](CCCNC(=N)N)NC(=O)[C@H](CCCNC(=N)N)NC(=O)[C@H](Cc1ccccc1)NC(=O)[C@H](Cc1ccccc1)NC(=O)[C@H](CO)NC(=O)CNC(=O)[C@H](Cc1c[nH]c2ccccc12)NC(=O)CN)C(C)C)C(C)C)[C@@H](C)O)C(N)=O [Pleurocidin-KR] (H-GWGSFFRRAAHVGRHVGRAALTHYL-NH2; N-terminus assumed) | 2 µg/mL (≈ 0.709 µM) | 2 µg/mL (≈ 0.709 µM) | 1-2 | 8-16 | 1 | 8 | 2 | 2 | 16 (NG) μg/ml | 16 | 30.7 ± 2.6 | (30.7 ± 2.6) μg/ml | 4 | 8 µg/mL (≈ 2.83 µM) | >400 µg/mL | 7.5 µM | 32 µg/mL (≈ 11.3 µM) | 4 µg/mL (≈ 1.42 µM) | 2 µg/mL (≈ 0.709 µM) | 2 | MIC, Peptide concentration ([1]; RPMI (value in parentheses)): 8 to 16 µg/mL; Peptide concentration necessary to start membrane activity ([7]; DPhPE/DPhPG): 10 µM; MIC, Peptide concentration [9]: 2 µg/mL (≈ 0.709 µM); MIC [9]: 32; MIC, Stability in serum (MH) ([10]; No serum): 2; MIC, Stability in serum (MH) ([10]; Serum (10% fetal bovine serum)): 4; MIC on initial panels [10]: 2-4; MIC [10]: 32; MIC, Stability in serum (MH) ([11]; No serum): 2 µg/mL (≈ 0.709 µM); MIC, Stability in serum (MH) ([11]; Serum (10% fetal bovine serum)): 1 µg/mL (≈ 0.354 µM); MIC on initial panels [11]: 1; MIC [11]: 16; MIC, Peptide concentration [11]: 16 µg/mL (≈ 5.67 µM)
CC(C)C[C@H](NC(=O)[C@H](Cc1ccc(O)cc1)NC(=O)[C@H](Cc1c[nH]cn1)NC(=O)[C@@H](NC(=O)[C@H](CC(C)C)NC(=O)[C@H](C)NC(=O)[C@H](C)NC(=O)[C@H](CCCCN)NC(=O)CNC(=O)[C@H](C)NC(=O)[C@H](Cc1c[nH]cn1)NC(=O)[C@H](CCCCN)NC(=O)CNC(=O)[C@H](C)NC(=O)[C@H](Cc1c[nH]cn1)NC(=O)[C@H](C)NC(=O)[C@H](C)NC(=O)[C@H](CCCCN)NC(=O)[C@H](CCCCN)NC(=O)[C@H](Cc1ccccc1)NC(=O)[C@H](Cc1ccccc1)NC(=O)[C@H](CO)NC(=O)CNC(=O)[C@H](Cc1c[nH]c2ccccc12)NC(=O)CN)[C@@H](C)O)C(N)=O [Pleurocidin-VA] (H-GWGSFFKKAAHAGKHAGKAALTHYL-NH2; N-terminus assumed) | 2 µg/mL (≈ 0.754 µM) | 4 µg/mL (≈ 1.51 µM) | 2 | 16 | 1-2 | 32 | 2 | 4 | 64-128 (NG) μg/ml | 64-128 | >400 | (>400) μg/ml | 64-128 | > 32 µg/mL | >>400 μg/ml | 2.5 µM | > 128 µg/mL | 16 µg/mL (≈ 6.03 µM) | 8 µg/mL (≈ 3.01 µM) | 4-8 | MIC, Peptide concentration ([1]; AYE): 16 µg/mL (≈ 6.03 µM); MIC [9]: 32; MIC, Stability in serum (MH) ([10]; No serum): 8; MIC, Stability in serum (MH) ([10]; Serum (10% fetal bovine serum)): 16; MIC on initial panels [10]: 4-8; MIC [10]: 32; MIC, Stability in serum (MH) ([11]; No serum): 1 µg/mL (≈ 0.377 µM); MIC, Stability in serum (MH) ([11]; Serum (10% fetal bovine serum)): 1 µg/mL (≈ 0.377 µM); MIC on initial panels [11]: 1; MIC [11]: 32; MIC, Peptide concentration [11]: 1 µg/mL (≈ 0.377 µM)
